We go through 18 compounds from PubChem BioAssay AID248 (DTP/NCI, 2004).

In this experiment the test system is L1210 leukemia ip in BDF1 mice, survival T/C. Description: NCI In Vivo Anticancer Drug Screen. Data for tumor model L1210 Leukemia (intraperitoneal) in B6D2F1 (BDF1) mice. The settings on record: endpoint: mean survival time, higher = longer survival. The gist of the method:
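Tumor was transplanted into mice, which were then dosed with test compound or vehicle alone. Survival was recorded for each group, and the treated figure was expressed relative to the control figure.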

Setting [1] is: dose: 12.5 mg/kg/injection, schedule: Q04DX003 (ip), vehicle: saline.
The mark [2] stands for this setting: dose: 50.0 mg/kg/injection, schedule: Q01DX001 (ip), vehicle: carboxymethylcellulose (CMC).
Setting [3] is: dose: 100.0 mg/kg/injection, schedule: Q01DX001 (ip), vehicle: carboxymethylcellulose (CMC).
The mark [4] stands for this setting: dose: 200.0 mg/kg/injection, schedule: Q01DX001 (ip), vehicle: carboxymethylcellulose (CMC).
The mark [5] stands for this setting: dose: 400.0 mg/kg/injection, schedule: Q01DX001 (ip), vehicle: carboxymethylcellulose (CMC).
Where [6] appears, read: dose: 400.0 mg/kg/injection, schedule: Q04DX002 (ip), vehicle: Klucel (hydroxypropylcellulose) (HPC).
Setting [7] is: dose: 100.0 mg/kg/injection, schedule: Q04DX003 (ip), vehicle: Klucel (hydroxypropylcellulose) (HPC).
[8] abbreviates: dose: 200.0 mg/kg/injection, schedule: Q04DX003 (ip), vehicle: Klucel (hydroxypropylcellulose) (HPC).
Where [9] appears, read: dose: 400.0 mg/kg/injection, schedule: Q04DX003 (ip), vehicle: Klucel (hydroxypropylcellulose) (HPC).
Where [10] appears, read: dose: 50.0 mg/kg/injection, schedule: Q04DX003 (ip), vehicle: Klucel (hydroxypropylcellulose) (HPC).
Setting [11] is: dose: 100.0 mg/kg/injection, schedule: Q01DX001 (ip), vehicle: Klucel (hydroxypropylcellulose) (HPC).
Setting [12] is: dose: 200.0 mg/kg/injection, schedule: Q01DX001 (ip), vehicle: Klucel (hydroxypropylcellulose) (HPC).
Where [13] appears, read: dose: 400.0 mg/kg/injection, schedule: Q01DX001 (ip), vehicle: Klucel (hydroxypropylcellulose) (HPC).
Where [14] appears, read: dose: 100.0 mg/kg/injection, schedule: Q01DX009 (ip), vehicle: Klucel (hydroxypropylcellulose) (HPC).
[15] abbreviates: dose: 200.0 mg/kg/injection, schedule: Q01DX009 (ip), vehicle: Klucel (hydroxypropylcellulose) (HPC).

SMILES strings stand for the structures. Values joined by “and” are separate entries in the source; they are usually repeats but may differ in a detail not shown here. Equal values may be shown once. Inconclusive results and toxic doses are left out.

Take `O=C1C=C(O)C(=O)C=C1O`: the T/C is, setting by setting: (dose: 3.0 mg/kg/injection, schedule: Q01DX009 (ip), vehicle: saline) 111 % of control; (dose: 5.0 mg/kg/injection, schedule: Q01DX001 (ip), vehicle: saline) 103 % of control; (dose: 6.0 mg/kg/injection, schedule: Q01DX009 (ip), vehicle: saline) 98 % of control; (dose: 10.0 mg/kg/injection, schedule: Q01DX001 (ip), vehicle: saline) 101 % of control; (dose: 10.0 mg/kg/injection, schedule: Q01DX009 (ip), vehicle: saline with Tween-80) 100 % of control; (dose: 12.0 mg/kg/injection, schedule: Q01DX009 (ip), vehicle: saline) 103 % of control. Besides, the T/C is 105 % of control and 92 % of control (dose: 12.5 mg/kg/injection, schedule: Q04DX002 (ip), vehicle: saline); 90 % of control under setting [1]; 98 % of control (dose: 20.0 mg/kg/injection, schedule: Q01DX001 (ip), vehicle: saline); 94 % of control (dose: 25.0 mg/kg/injection, schedule: Q04DX002 (ip), vehicle: saline); 92 % of control (dose: 40.0 mg/kg/injection, schedule: Q01DX009 (ip), vehicle: saline with Tween-80); 108 % of control (dose: 50.0 mg/kg/injection, schedule: Q04DX002 (ip), vehicle: saline).

As for `CC1(C)N=C(c2ccccc2)C2C(c3ccc([N+](=O)[O-])cc3)N21` (stereo not given), the T/C reads like this: under setting [2], 98 % of control; under setting [3], 88 % of control; under setting [4], 93 % of control; under setting [5], 91 % of control.

With `CNc1ccccc1CCc1ccccc1CO`, the T/C under setting [6] was 89 % of control.

With `CC(C)N(c1ccc(C(=NO)c2ccc(N(C(C)C)C(C)C)cc2)cc1)C(C)C`, the T/C was 90 % of control under setting [7], 88 % of control under setting [8] and 92 % of control under setting [9].

Regarding `O=C(CCl)Nc1c(Cl)cc(Cl)cc1Cl`, the T/C is 97 % of control under setting [10]; 103 % of control under setting [11]; 90 % of control under setting [7]; 98 % of control under setting [12]; 93 % of control under setting [8]; 103 % of control under setting [13].

Take `CCCCC/C=N\NC(N)=S`: the T/C under setting [3] was 96 % of control.

In the case of `COC(=O)/C(=C\c1ccc([N+](=O)[O-])s1)C(C)=O`, the T/C (dose: 6.25 mg/kg/injection, schedule: Q01DX005 (ip), vehicle: saline with Tween-80) was 92 % of control; the T/C (dose: 12.5 mg/kg/injection, schedule: Q01DX005 (ip), vehicle: saline with Tween-80) is 94 % of control; the T/C under setting [1] was 94 % of control; the T/C (dose: 25.0 mg/kg/injection, schedule: Q04DX003 (ip), vehicle: saline) is 96 % of control; the T/C (dose: 50.0 mg/kg/injection, schedule: Q04DX003 (ip), vehicle: saline) was 86 % of control.

Turning to `Cc1sc(-c2ccccc2)nc1-c1ccc(N=Cc2ccc(N(CCCl)CCCl)cc2)cc1`, the T/C was 101 % of control under setting [3], 101 % of control under setting [4] and 106 % of control under setting [5].

Turning to `O=C(Nc1cccc(O)c1)Nc1ccc(Cl)cc1[N+](=O)[O-]`, the T/C is 102 % of control under setting [14] and 101 % of control under setting [15].

Regarding `CC12CCC(Cl)(CC1O)C2(C)C` (stereo not given), the T/C reads like this: (dose: 75.0 mg/kg/injection, schedule: Q01DX001 (ip), vehicle: saline) 102 % of control; (dose: 150.0 mg/kg/injection, schedule: Q01DX001 (ip), vehicle: saline) 97 % of control.

As to `O=C1C(n2ccc(=O)n(Cc3ccccc3)c2=O)CCN1CCO` (stereo not given), the T/C reads like this: (dose: 100.0 mg/kg/injection, schedule: Q04DX003 (ip), vehicle: saline) 96 % of control; (dose: 200.0 mg/kg/injection, schedule: Q04DX003 (ip), vehicle: saline) 119 % of control; (dose: 400.0 mg/kg/injection, schedule: Q04DX003 (ip), vehicle: saline) 102 % of control.

On to `NC(=S)c1nn(C2OC(CO)C(O)C2O)c2ncnc(N)c12` (stereo not given), for which the T/C is 122 % of control (dose: 0.78 mg/kg/injection, schedule: Q01DX009 (ip), vehicle: saline); 173 % of control (dose: 3.12 mg/kg/injection, schedule: Q01DX009 (ip), vehicle: saline); 89 % of control (dose: 6.25 mg/kg/injection, schedule: Q01DX009 (ip), vehicle: saline).

With `CCc1cc2c(cc1C(=O)/C=C\C(=O)O)C(C)(C)CCC2(C)C`, the T/C was 96 % of control (dose: 0.5 mg/kg/injection, schedule: Q01DX001 (ip), vehicle: saline); 100 % of control (dose: 1.0 mg/kg/injection, schedule: Q01DX001 (ip), vehicle: saline); 98 % of control (dose: 2.0 mg/kg/injection, schedule: Q01DX001 (ip), vehicle: saline); 100 % of control (dose: 2.97 mg/kg/injection, schedule: Q01DX001 (ip), vehicle: saline); 98 % of control (dose: 3.75 mg/kg/injection, schedule: Q01DX009 (ip), vehicle: saline with Tween-80); 101 % of control (dose: 3.75 mg/kg/injection, schedule: Q04DX003 (ip), vehicle: acetone). The T/C is, setting by setting: (dose: 4.5 mg/kg/injection, schedule: Q01DX001 (ip), vehicle: saline) 104 % of control; (dose: 6.75 mg/kg/injection, schedule: Q01DX001 (ip), vehicle: saline) 104 % of control; (dose: 7.5 mg/kg/injection, schedule: Q01DX009 (ip), vehicle: saline with Tween-80) 94 % of control; (dose: 7.5 mg/kg/injection, schedule: Q04DX003 (ip), vehicle: acetone) 108 % of control; (dose: 9.9 mg/kg/injection, schedule: Q01DX001 (ip), vehicle: saline) 96 % of control; (dose: 15.0 mg/kg/injection, schedule: Q01DX001 (ip), vehicle: saline) 98 % of control. In addition, for the setting “dose: 15.0 mg/kg/injection, schedule: Q04DX003 (ip), vehicle: acetone”, the T/C is 98 % of control.

Take `O=C(Nc1cccc(C(F)(F)F)c1)Nc1ccc(Cl)cc1Cl`: the T/C is, setting by setting: under setting [11], 96 % of control; under setting [14], 95 % of control and 108 % of control; (dose: 100.0 mg/kg/injection, schedule: Q04DX002 (ip), vehicle: Klucel (hydroxypropylcellulose) (HPC)) 95 % of control and 100 % of control; under setting [7], 86 % of control; under setting [12], 91 % of control; under setting [15], 94 % of control and 104 % of control. In addition, the T/C was 100 % of control and 88 % of control (dose: 200.0 mg/kg/injection, schedule: Q04DX002 (ip), vehicle: Klucel (hydroxypropylcellulose) (HPC)); 94 % of control under setting [8]; 93 % of control under setting [13]; 95 % of control and 97 % of control (dose: 400.0 mg/kg/injection, schedule: Q01DX009 (ip), vehicle: Klucel (hydroxypropylcellulose) (HPC)); 98 % of control and 104 % of control under setting [6]; 92 % of control under setting [9].

As to `CC(CC(=O)OCC(F)(F)C(F)(F)C(F)(F)C(F)F)CC(=O)OCC(F)(F)C(F)(F)C(F)(F)C(F)F`, the T/C is, setting by setting: under setting [2], 96 % of control; under setting [3], 100 % of control; under setting [4], 96 % of control; under setting [5], 91 % of control.

Turning to `CNC(=O)c1cnc(SC)nc1N`, the T/C runs as follows: under setting [10], 103 % of control; under setting [11], 103 % of control; under setting [7], 101 % of control; under setting [12], 100 % of control; under setting [8], 111 % of control.

Turning to `CC(C)C(C)/C=C\C(C)C1CCC2C3=CCC4CC(O)CCC4(C)C3CCC21C` (stereo not given), the T/C is, setting by setting: under setting [11], 97 % of control; under setting [12], 97 % of control; under setting [13], 97 % of control.

Take `CCOC(=O)C(C#N)C1CCCCC1` (stereo not given): the T/C reads like this: (dose: 25.0 mg/kg/injection, schedule: Q01DX009 (ip), vehicle: Klucel (hydroxypropylcellulose) (HPC)) 109 % of control; (dose: 50.0 mg/kg/injection, schedule: Q01DX009 (ip), vehicle: Klucel (hydroxypropylcellulose) (HPC)) 102 % of control; (dose: 100.0 mg/kg/injection, schedule: Q01DX001 (ip), vehicle: saline with Tween-80) 98 % of control; under setting [14], 102 % of control; under setting [7], 102 % of control; (dose: 200.0 mg/kg/injection, schedule: Q01DX001 (ip), vehicle: saline with Tween-80) 95 % of control. Besides, the T/C under setting [8] is 107 % of control and the T/C under setting [9] was 100 % of control.
